From the supplement of paper PMC10331698
± gives the standard deviation of the averaged measurements.

Key:
Assay in all cases: level (log10 ratio to DMSO vehicle control); higher = higher biomarker level / cell amount than vehicle control
Perfluoropinacol = compound: OC(C(F)(F)F)(C(F)(F)F)C(O)(C(F)(F)F)C(F)(F)F [Perfluoropinacol]; settings: in DMSO
In short: (§1)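 After a 1 h pretreatment with test substances, BioMAP Diversity Plus human primary cell co-cultures were stimulated with cytokines or activators and incubated 24 h (MyoF 48 h; BT 72 h, or 6 d for secreted IgG). Biomarkers were quantified by ELISA, cell amount by sulforhodamine B, and PBMC viability/proliferation by Alamar Blue. Each well was expressed relative to the mean of 8 same-plate DMSO wells, log10 transformed, and blinded duplicates were averaged.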

Tetrafluorosuccinic acid = compound: O=C(O)C(F)(F)C(F)(F)C(=O)O [Tetrafluorosuccinic acid]; settings: in DMSO
In short: as §1

[1] = compound: FC(F)(I)C(F)(F)C(F)(F)C(F)(F)C(F)(F)C(F)(F)I [1,6-Diiodoperfluorohexane]; settings: 6700 nM; in DMSO
In short: as §1

Methotrexate = compound: CN(Cc1cnc2nc(N)nc(N)c2n1)c1ccc(C(=O)N[C@@H](CCC(=O)O)C(=O)O)cc1 [Methotrexate]; settings: in DMSO
In short: as §1

[2] = compound: O=S(=O)(O)CCC(F)(F)C(F)(F)C(F)(F)C(F)(F)F [4:2 Fluorotelomer sulfonic acid]; settings: in DMSO
In short: as §1

[3] = compound: O=C(Cl)C(F)(F)C(F)(F)C(F)(F)C(=O)Cl [Hexafluoroglutaryl chloride]; settings: in DMSO
In short: as §1

[4] = compound: OCC(F)(F)C(F)(F)C(F)(F)C(F)(F)C(F)(F)C(F)(F)F [6:1 Fluorotelomer alcohol]; settings: in DMSO
In short: as §1

| Test System | level (log10) (Perfluoropinacol; 6700 nM) | level (log10) (Perfluoropinacol; 20000 nM) | level (log10) (Tetrafluorosuccinic acid; 6700 nM) | level (log10) (Tetrafluorosuccinic acid; 20000 nM) | level (log10) (Tetrafluorosuccinic acid; 60000 nM) | level (log10) [1] | level (log10) (Methotrexate; 1500 nM) | level (log10) (Methotrexate; 4400 nM) | level (log10) (Methotrexate; 13000 nM) | level (log10) (Methotrexate; 40000 nM) | level (log10) ([2]; 6700 nM) | level (log10) ([2]; 20000 nM) | level (log10) ([2]; 60000 nM) | level (log10) ([3]; 6700 nM) | level (log10) ([3]; 20000 nM) | level (log10) ([3]; 60000 nM) | level (log10) ([4]; 6700 nM) | level (log10) ([4]; 20000 nM) | level (log10) ([4]; 60000 nM) |
| --- | --- | --- | --- | --- | --- | --- | --- | --- | --- | --- | --- | --- | --- | --- | --- | --- | --- | --- | --- |
| KF3CT:SRB | -0.004 ± 0.0042 | -0.014 ± 0.02 | -0.012 | -0.0005 ± 0.0078 | 0.001 ± 0.0042 | -0.288 | 0.0105 ± 0.012 | -0.002 ± 0.0057 | 0.0025 ± 0.0035 | 0.009 ± 0.021 | -0.0015 ± 0.0021 | -0.0015 ± 0.0021 | 0.0035 ± 0.0092 | -0.0015 ± 0.005 | 0.005 ± 0.0014 | 0.0055 ± 0.0064 | -0.0035 ± 0.0064 | -0.0025 ± 0.0035 | -0.004 ± 0.0028 |
| KF3CT:TIMP-2 | 0.013 ± 0.0085 | 0.0745 ± 0.0064 | 0 ± 0.0071 | 0.0365 ± 0.005 | 0.027 ± 0.024 | -0.022 | -0.029 ± 0.035 | -0.034 ± 0.069 | -0.0325 ± 0.06 | -0.0195 ± 0.088 | -0.0215 ± 0.023 | -0.0185 ± 0.042 | -0.0025 ± 0.0064 | -0.029 ± 0.023 | 0.003 ± 0.0099 | 0.02 ± 0.034 | -0.0025 ± 0.005 | 0.0035 ± 0.0021 | 0.008 ± 0.017 |
| KF3CT:uPA | 0.0065 ± 0.035 | 0.019 ± 0.021 | -0.012 ± 0.0071 | 0.0025 ± 0.0064 | -0.0285 ± 0.00071 | -0.002 | -0.0115 ± 0.0021 | -0.0195 ± 0.00071 | -0.031 ± 0.057 | -0.045 ± 0.059 | 0 ± 0.0042 | 0 ± 0.0028 | -0.0075 ± 0.028 | 0.003 ± 0.0099 | 0.0235 ± 0.00071 | 0.015 ± 0.014 | -0.0045 ± 0.0092 | -0.002 ± 0.018 | 0.0085 ± 0.025 |
| MyoF:CD106/VCAM-1 | -0.013 ± 0.011 | -0.042 ± 0.0085 | -0.0095 ± 0.016 | 0.0005 ± 0.019 | -0.015 ± 0.0085 | -0.373 | 0.0165 ± 0.015 | -0.0045 ± 0.013 | 0.038 ± 0.024 | 0.0095 ± 0.0092 | -0.0015 ± 0.013 | -0.0115 ± 0.0092 | -0.004 ± 0.0014 | -0.003 ± 0.0028 | 0.0015 ± 0.018 | 0.0035 ± 0.012 | -0.003 ± 0.0071 | -0.009 ± 0.017 | -0.002 ± 0.018 |
| MyoF:CXCL8/IL-8 | 0.0295 ± 0.005 | 0.0265 ± 0.012 | -0.013 ± 0.0099 | -0.019 ± 0.014 | 0.006 ± 0.025 | 0.153 | 0.0055 ± 0.028 | 0.0135 ± 0.016 | -0.0035 ± 0.033 | 0.0105 ± 0.022 | 0 ± 0.0028 | 0.003 ± 0.02 | -0.0055 ± 0.018 | -0.017 ± 0.0071 | 0.014 ± 0.011 | 0.03 ± 0.0085 | -0.0055 ± 0.025 | -0.0095 ± 0.037 | -0.005 ± 0.025 |
| MyoF:Collagen I | 0.044 | -0.006 ± 0.0099 | 0.0045 ± 0.0021 | 0.007 ± 0.0014 | 0.0005 ± 0.012 | -0.444 | -0.0115 ± 0.049 | -0.01 ± 0.059 | 0.01 ± 0.035 | 0.004 ± 0.038 | 0.004 ± 0.013 | -0.0155 ± 0.015 | 0.018 | 0.004 ± 0.013 | -0.0005 ± 0.025 | 0.0145 ± 0.00071 | 0 ± 0.021 | -0.0005 ± 0.012 | 0.0015 ± 0.03 |
| MyoF:Collagen III | -0.0405 ± 0.011 | -0.136 ± 0.0014 | -0.013 ± 0.016 | -0.0205 ± 0.005 | -0.016 ± 0.0099 | -0.527 | -0.011 ± 0.04 | -0.001 ± 0.065 | 0.009 ± 0.069 | 0.014 ± 0.041 | -0.013 ± 0.016 | -0.032 ± 0.0028 | -0.0045 ± 0.011 | -0.0115 ± 0.0078 | -0.004 ± 0.035 | -0.003 ± 0.021 | -0.005 | -0.0015 ± 0.005 | 0.0105 ± 0.005 |
| MyoF:Collagen IV | 0.0385 ± 0.005 | 0.165 ± 0.0028 | 0.008 | 0.003 ± 0.0099 | 0.0115 ± 0.015 | 0.063 | -0.0195 ± 0.025 | 0.004 ± 0.033 | 0.007 ± 0.061 | -0.014 ± 0.016 | -0.0075 ± 0.00071 | -0.037 ± 0.0057 | -0.0225 ± 0.025 | -0.021 ± 0.099 | -0.0295 ± 0.11 | -0.0075 ± 0.069 | -0.013 ± 0.0014 | -0.0335 ± 0.016 | 0.012 ± 0.02 |
| MyoF:Decorin | -0.041 ± 0.024 | -0.034 ± 0.025 | -0.0055 ± 0.0021 | -0.006 ± 0.0057 | 0.014 ± 0.027 | 0.021 | 0.0355 ± 0.037 | 0.0025 ± 0.026 | 0.0105 ± 0.016 | 0.0275 ± 0.0078 | -0.0075 ± 0.0078 | -0.012 ± 0.0014 | 0.004 ± 0.0028 | -0.014 ± 0.016 | -0.0095 ± 0.026 | -0.006 ± 0.0099 | 0.004 ± 0.0071 | 0.0075 ± 0.0092 | 0.0005 ± 0.023 |
| MyoF:MMP-1 | -0.0075 ± 0.012 | -0.027 ± 0.0042 | -0.006 ± 0.023 | 0.0025 ± 0.0021 | 0.0535 ± 0.059 | 0.469 | 0.002 ± 0.027 | -0.017 ± 0.02 | -0.004 ± 0.018 | 0.0175 ± 0.0021 | -0.022 | -0.05 ± 0.0057 | -0.005 ± 0.047 | -0.043 ± 0.05 | -0.026 ± 0.054 | -0.0195 ± 0.018 | -0.018 ± 0.014 | -0.0295 ± 0.0078 | 0.15 ± 0.26 |
| MyoF:PAI-I | -0.0215 ± 0.012 | -0.0025 ± 0.00071 | 0.009 ± 0.0057 | 0.01 ± 0.017 | 0.004 ± 0.014 | -0.053 | -0.026 ± 0.072 | -0.011 ± 0.035 | 0.0015 ± 0.016 | -0.0185 ± 0.084 | -0.0015 ± 0.00071 | 0.0055 ± 0.0035 | 0.0055 ± 0.012 | -0.001 ± 0.0085 | 0.02 ± 0.013 | 0.01 ± 0.0042 | 0.0015 ± 0.0078 | -0.006 ± 0.0042 | 0.0025 ± 0.019 |
| MyoF:SRB | -0.012 | -0.0445 ± 0.0021 | -0.0035 ± 0.0035 | -0.0135 ± 0.0021 | -0.01 ± 0.0014 | -0.209 | 0.012 ± 0.013 | 0.003 | 0.0125 ± 0.0064 | -0.0005 ± 0.005 | -0.004 ± 0.0071 | -0.0045 ± 0.0021 | -0.004 ± 0.0028 | 0 ± 0.011 | 0.003 ± 0.0028 | -0.003 ± 0.018 | 0.003 ± 0.02 | 0.0015 ± 0.016 | -0.089 ± 0.13 |
| MyoF:TIMP-1 | 0.006 ± 0.016 | -0.021 ± 0.0028 | -0.0045 ± 0.022 | -0.0215 ± 0.04 | -0.026 ± 0.069 | -0.047 | -0.0025 ± 0.0021 | -0.025 ± 0.027 | -0.012 ± 0.033 | -0.0285 ± 0.084 | -0.0465 ± 0.069 | -0.0285 ± 0.047 | -0.0095 ± 0.036 | -0.04 ± 0.057 | -0.024 ± 0.027 | 0.0175 ± 0.04 | 0.0125 ± 0.025 | 0.0145 ± 0.019 | 0.03 ± 0.013 |
